Publication PMC11417357, “The SAVED domain of the type III CRISPR protease CalpL is a ring nuclease” (Nucleic Acids Research, 2024)
Substitutions are numbered along the chain they refer to. Read-outs that look alike come from different tables or passages of the source.

How the values were obtained:
Assay in all cases: SPR, single-cycle kinetics, […] model, CalpL amine-coupled to CM5 chip
Type in all cases: binding
Conditions in all cases: 20 mM Tris pH 8, 50 mM NaCl, 0.05% Tween20, 25 °C
CalpL [1] = biological target: T1, CalpL (Sulfurihydrogenibium sp. YO3AOP1, UniProt Z9OF32SUC9, H345A)
T1 construct: codon-optimized CalpL, Lon protease domain plus C-terminal SAVED domain; N-terminal 10xHis-TEV tag removed by TEV protease; expressed in E. coli BL21(DE3); monomer that oligomerizes with cA4
T1 sequence (Z9OF32SUC9 2-496 H345A): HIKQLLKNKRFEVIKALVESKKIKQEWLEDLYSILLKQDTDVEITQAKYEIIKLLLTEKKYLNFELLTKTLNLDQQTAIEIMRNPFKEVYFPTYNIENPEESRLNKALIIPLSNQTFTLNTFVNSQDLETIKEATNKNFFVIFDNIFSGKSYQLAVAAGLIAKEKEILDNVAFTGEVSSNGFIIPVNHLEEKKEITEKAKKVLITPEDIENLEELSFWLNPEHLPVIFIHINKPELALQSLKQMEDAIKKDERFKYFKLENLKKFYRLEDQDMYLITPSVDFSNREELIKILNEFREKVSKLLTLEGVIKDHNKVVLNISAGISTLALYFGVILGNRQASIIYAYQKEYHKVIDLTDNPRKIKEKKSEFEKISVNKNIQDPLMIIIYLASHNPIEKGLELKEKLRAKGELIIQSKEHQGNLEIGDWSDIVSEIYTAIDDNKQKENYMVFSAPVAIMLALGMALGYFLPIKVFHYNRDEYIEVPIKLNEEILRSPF

CalpL [2] = biological target: T2, CalpL (Sulfurihydrogenibium sp. YO3AOP1, UniProt Z9OF32SUC9, H474A)
T2 construct: codon-optimized CalpL, Lon protease domain plus C-terminal SAVED domain; N-terminal 10xHis-TEV tag removed by TEV protease; expressed in E. coli BL21(DE3); monomer that oligomerizes with cA4
T2 sequence (Z9OF32SUC9 2-496 H474A): T1 sequence (Z9OF32SUC9 2-496 H345A) with A344H, H473A

CalpL [3] = biological target: T3, CalpL (Sulfurihydrogenibium sp. YO3AOP1, UniProt Z9OF32SUC9)
T3 construct: codon-optimized CalpL, Lon protease domain plus C-terminal SAVED domain; N-terminal 10xHis-TEV tag removed by TEV protease; expressed in E. coli BL21(DE3); monomer that oligomerizes with cA4
T3 sequence (Z9OF32SUC9 2-496): T1 sequence (Z9OF32SUC9 2-496 H345A) with A344H

CalpL [4] = biological target: T3, CalpL; remark: listed apart in the source
CalpL [5] = biological target: T4, CalpL (Sulfurihydrogenibium sp. YO3AOP1, UniProt Z9OF32SUC9, H392A)
T4 construct: codon-optimized CalpL, Lon protease domain plus C-terminal SAVED domain; N-terminal 10xHis-TEV tag removed by TEV protease; expressed in E. coli BL21(DE3); monomer that oligomerizes with cA4
T4 sequence (Z9OF32SUC9 2-496 H392A): T1 sequence (Z9OF32SUC9 2-496 H345A) with A344H, H391A

CalpL [6] = biological target: T5, CalpL (Sulfurihydrogenibium sp. YO3AOP1, UniProt Z9OF32SUC9, R361E)
T5 construct: codon-optimized CalpL, Lon protease domain plus C-terminal SAVED domain; N-terminal 10xHis-TEV tag removed by TEV protease; expressed in E. coli BL21(DE3); monomer that oligomerizes with cA4
T5 sequence (Z9OF32SUC9 2-496 R361E): T1 sequence (Z9OF32SUC9 2-496 H345A) with A344H, R360E

CalpL [7] = biological target: T6, CalpL (Sulfurihydrogenibium sp. YO3AOP1, UniProt Z9OF32SUC9, R361A)
T6 construct: codon-optimized CalpL, Lon protease domain plus C-terminal SAVED domain; N-terminal 10xHis-TEV tag removed by TEV protease; expressed in E. coli BL21(DE3); monomer that oligomerizes with cA4
T6 sequence (Z9OF32SUC9 2-496 R361A): T1 sequence (Z9OF32SUC9 2-496 H345A) with A344H, R360A

Compound | Kd (CalpL [1]) | Kd (CalpL [2]) | Kd (CalpL [5]) | also measured
Nc1ncnc2c1ncn2[C@@H]1O[C@@H]2COP(=O)(O)O[C@H]3[C@@H](F)[C@H](n4cnc5c(N)ncnc54)O[C@@H]3COP(=O)(O)O[C@H]3[C@@H](F)[C@H](n4cnc5c(N)ncnc54)O[C@@H]3COP(=O)(O)O[C@H]3[C@@H](F)[C@H](n4cnc5c(N)ncnc54)O[C@@H]3COP(=O)(O)O[C@H]2[C@H]1F [2′F-cA4] | 18.9 nM | 0.224 nM |  | Kd (CalpL [3]; non-hydrolysable analogue, read-out: KD): 1 nM
Nc1ncnc2c1ncn2[C@@H]1O[C@H](COP(=O)(O)O[C@H]2[C@@H](O)[C@H](n3cnc4c(N)ncnc43)O[C@@H]2CO)[C@@H](OP(=O)(O)O)[C@H]1O [A2] |  |  |  | KD (CalpL [4]): decrease in affinity of CalpL towards A4 and A2 compared to cA4
Nc1ncnc2c1ncn2[C@@H]1O[C@H](COP(=O)(O)O[C@H]2[C@@H](O)[C@H](n3cnc4c(N)ncnc43)O[C@@H]2COP(=O)(O)O[C@H]2[C@@H](O)[C@H](n3cnc4c(N)ncnc43)O[C@@H]2COP(=O)(O)O[C@H]2[C@@H](O)[C@H](n3cnc4c(N)ncnc43)O[C@@H]2CO)[C@@H](OP(=O)(O)O)[C@H]1O [A4] |  |  | 1.72 nM | Kd (CalpL [3]; apparent, read-out: apparent KD): 158 nM
Nc1ncnc2c1ncn2[C@@H]1O[C@@H]2COP(=O)(O)O[C@H]3[C@@H](O)[C@H](n4cnc5c(N)ncnc54)O[C@@H]3COP(=O)(O)O[C@H]3[C@@H](O)[C@H](n4cnc5c(N)ncnc54)O[C@@H]3COP(=O)(O)O[C@H]3[C@@H](O)[C@H](n4cnc5c(N)ncnc54)O[C@@H]3COP(=O)(O)O[C@H]2[C@H]1O [cA4] | 68.7 nM | 48.6 nM | 0.0308 nM | Kd (CalpL [6]): 1 nM; Kd (CalpL [7]): 0.87 nM; Kd (CalpL [3]; apparent: ligand cleaved on the chip, depends on immobilization density, read-out: apparent KD): 50 nM
